How the values were obtained:
human PPARalpha receptor = target: T1, human PPARalpha receptor (Homo sapiens, UniProt Q07869); experiment: cellular GAL4 reporter gene assay (M1H) in HEK293 cells, PPARalpha; format: cell-based; conditions: agonist mode
T1 construct: expressed in transfected cells; host or cells: HEK293 (DSMZ ACC 305)
T1 sequence (Q07869 239-466 limits assumed): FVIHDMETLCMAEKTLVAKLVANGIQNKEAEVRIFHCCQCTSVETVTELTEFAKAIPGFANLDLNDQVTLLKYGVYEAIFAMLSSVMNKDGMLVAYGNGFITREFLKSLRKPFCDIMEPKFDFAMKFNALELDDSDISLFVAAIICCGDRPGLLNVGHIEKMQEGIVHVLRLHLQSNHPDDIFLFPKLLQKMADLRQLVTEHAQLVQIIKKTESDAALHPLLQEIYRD
Description: The compounds BIZ-102 (Example 2), BIZ-103 (Example 5) and BIZ-106 were tested at the human PPARalpha receptor in a cellular GAL4 Reporter gene assay. The assay was run in agonist and antagonist mode to detect agonistic as well as antagonistic activities of the tested compounds.
Performance of the GAL4 cellular reporter assay:
Day 1: Cells were seeded in 96 well plates in plating medium (MEM with serum), incubation overnight at 37° C., 5% CO2.
Day 2: Removal of plating medium
Addition of PEI-based transfection agent
Incubation for 4-6 hours at 37° C., 5% CO2
Addition of assay medium (MEM with serum)
Addition of compounds (dilution series was generated in MEM with serum)
Incubation overnight at 37° C., 5% CO2
Day 3: Removal of assay medium (16-20 hours after compound addition)
Addition of Passive Lysis Buffer (Promega)
15 mins incubation at room temperature
Addition of luciferase buffers and measurement in a dual-flash procedure
(§1) The assays were done in HEK293 cells (DSMZ ACC 305). The plasmids used in the GAL4 assay system were derivatives of Stratagene's M2H plasmids: the reporter plasmid pFR-Luc (containing a synthetic promoter with five tandem repeats of the yeast GAL4 binding sites that control expression of the Photinus pyralis (American firefly) luciferase gene), and pCMV-BD (for fusions of nuclear receptor ligand binding domains to the DNA-binding domain of the yeast protein GAL4). In order to improve experimental accuracy, a second reporter—Renilla reniformis luciferase, driven by a constitutive promoter—was included as an internal control. Using the control reporter (Renilla Luciferase) allowed corrections for variations in experimental handling, e.g. transfection efficacy, cell viability, pipetting errors, cell lysis efficiency and assay efficiency.
Primary read out of the assays was loaded into PhAST (Phenex Assay and Screening Tool) and checked for assay quality (generation of SB and Zprime values). […] Within PhAST there are two measured and one calculated data layers:
LAYER1 (measured)—contains the activity values of the firefly luciferase activities and is a direct measure for modulation of the cofactor binding properties of the Nuclear Receptors by the tested compounds.
LAYER2 (measured)—contains the activity values of the renilla luciferase activities and is used as normalisation layer. As the renilla luciferase is expressed under control of the constitutively active CMV promoter, moderate well-to-well differences can be used to correct for variations in experimental handling.
LAYER3 (calculated)—is calculated according to the following equation: […]
1000*Firefly luciferase value/Renilla luciferase value
These normalised values are, as well as LAYER1, a measure for the modulation of the cofactor binding properties of the nuclear receptors by the tested compounds.

human PPARbeta/delta = target: T2, human PPARbeta/delta (Homo sapiens, UniProt Q03181); experiment: cellular GAL4 reporter gene assay, agonist mode, PPARbeta/delta; format: cell-based
T2 construct: expressed in transfected cells; host or cells: HEK293 (DSMZ ACC 305)
T2 sequence (Q03181 211-439 limits assumed): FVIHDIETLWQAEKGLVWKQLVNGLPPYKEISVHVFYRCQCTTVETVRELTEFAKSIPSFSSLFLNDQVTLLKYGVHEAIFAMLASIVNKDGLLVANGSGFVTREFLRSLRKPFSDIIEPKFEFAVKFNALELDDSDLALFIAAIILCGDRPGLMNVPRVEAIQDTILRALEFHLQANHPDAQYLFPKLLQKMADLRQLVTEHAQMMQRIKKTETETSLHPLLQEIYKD
Text: as §1, with “M2H” left out, “reporter-Renilla” for “reporter—Renilla”, “promoter-was” for “promoter—was”, “efficiency. […] The compounds BIZ-102 and BIZ-103 were tested at the human PPARbeta/delta and PPARgamma receptors using the same cellular GAL4 Reporter gene assays as in Example 6. The assays were run in agonist mode to detect agonistic activities of the tested compounds.” for “efficiency.”

SMILES: CCCCC/C=C\C/C=C\C/C=C\C/C=C\CCC(CC)C(=O)O (centres unmarked) [BIZ-102, (All-Z) 2-ethyl-5,8,11,14-eicosatetraenoic Acid]
- Efficacy vs. Fenofibric Acid (human PPARalpha receptor; HEK293): 45%
- Efficacy vs. GW7647 (human PPARalpha receptor; HEK293): 150%
- EC50 (human PPARalpha receptor; HEK293, GAL4 reporter): 350 nM
- EC50 (human PPARbeta/delta): 4.3 µM
- PPARbeta/delta efficacy vs. GW501516 (human PPARbeta/delta): 20%

Source: patent publication US20190284129A1, “LIPID COMPOUNDS AND COMPOSITIONS AND THEIR OPTHALMIC USE” (BIOZEP AS, priority 2015, published 2019)
